Counter-ions that a name gives are not always drawn.
Legend:
C. elegans = C. elegans lifespan analysis; assay type: in vivo; conditions: for Lifespan increase (%): vs DMSO
Method: The C. elegans mutant strain, fem-1(hc17ts) IV; dal-1(dt2300), obtained from the Caenorhabditis Genetics Center at the University of Minnesota, was cultured on Nematode Growth Medium (NGM) plates seeded with the E. coli strain OP50 and consistently maintained at 15° C. For lifespan assays, a total of 12 age-synchronized nematode adults were transferred to eight replicate NGM plates and grown at 25° C. to ensure sterility. Age synchronization was achieved through standard hypochlorite treatments. Eggs were placed on NGM plates supplemented with Streptomycin (100 μg ml-1) and seeded with the E. coli strain, OP50. For compound testing, 200 μl of 10 μM Ikarugamycin in 5% DMSO was spotted directly onto OP50 seeded NGM plates. Control plates were prepared by spotting 200 μl of 5% DMSO directly onto OP50 seeded NGM plates. For the first 10 days of adulthood, C. elegans were scored once a day as dead or alive by touch stimulation with a platinum wire. After day 10, animals were scored every other day. Nematodes which crawling off the agar plates were censored from subsequent lifespan analysis. Kaplan-Meier statistical analysis was performed using Prism 7 software. Lifespan experiments were done on two separate occasions.

[1] = Body weight of normal-diet-fed (lean) mice; assay type: in vivo, mouse; conditions: 2.5 mg/kg DG
HeLa cells = test: Cellular ROS level (CellROX Green); assay type: cell-based, human; conditions: 4 hrs
Source text: SFIGS. 5A-I. Small-molecule activators of TFEB engage different sources of Ca. (SFIG. 5A) HeLa cells were pretreated with or without N-acetyl-cysteine (NAC) for 1 hr and then treated with tert-butyl hydroperoxide (TBHP) or AD for 4 hrs. TBHP and NAC were used as positive and negative controls. A ROS-sensitive DNA dye CellROX Green was used to detect cellular ROS levels after these treatments. Endogenous TFEB localization was also shown. (SFIG. 5B) Quantification of the fluorescent intensity of CellROX Green in cells treated as in a was done by a plate reader. (SFIG. 5C) Quantification of endogenous TFEB nuclear translocation in SFIG. 5A. (SFIG. 5D) Cells were pretreated with or without 25 μM IP3R inhibitor Xestosporine C (Xesto) for 1 hr and then treated with DG, AD and IKA for indicated time. Quantification of TFEB translocation was shown in SFIG. 5E-G (graphs represent mean±s.d. **p<0.01, ***p<0.001, ****p<0.0001). (SFIG. 5H-I) RNA-interference were used to knock down inositol […] receptor type 1 (IP3R1) in GFP-TFEB cells before they were treated with DG, AD and IKA. siLONRF1 was used as a negative control. TFEB translocation percentage was quantified from images as shown in SFIG. 5I (mean±s.d. for n=3 independent experiments, ****p<0.0001). Scale bar, 20 μm.

SMILES: CC[C@H]1[C@@H]2C=C[C@@H]3[C@H]4C/C=C\C(=O)NCCC[C@@H]5NC(=O)/C(=C(O)/C=C/[C@@H]4C[C@@H]3[C@H]2C[C@H]1C)C5=O [IKA, ikarugamycin]
- lifespan of fem-1(−);dal-1(−) animals (C. elegans; 5 μM IKA vs DMSO): significantly extended
- 75th % (C. elegans; 1st experiment): 16 days
- Mean Lifespan ± s.e.m (C. elegans; 1st experiment): 21.8 ± 0.6 days
- Median lifespan (C. elegans; 1st experiment): 22 days
- Lifespan increase (%) (C. elegans; 1st experiment): 22.2%
- Mean Lifespan ± s.e.m (C. elegans; 2nd experiment): 23.0 ± 0.5 days
- Median lifespan (C. elegans; 2nd experiment): 24 days
- Lifespan increase (%) (C. elegans; 2nd experiment): 22.3%

SMILES: C[C@H]1O[C@@H](O[C@H]2[C@@H](O)C[C@H](O[C@H]3[C@@H](O)C[C@H](O[C@H]4CC[C@@]5(C)[C@H](CC[C@@H]6[C@@H]5C[C@@H](O)[C@]5(C)[C@@H](C7=CC(=O)OC7)CC[C@]65O)C4)O[C@@H]3C)O[C@@H]2C)C[C@H](O)[C@@H]1O [DG, digoxin, reference compound]
- body weight of lean mice [1]: did not alter

SMILES: CCCCC(CC)CNC(=N)NC(=N)NCCCCCCNC(=N)NC(=N)NCC(CC)CCCC (stereo not shown) [AD, alexidine dihydrochloride]
- ROS production (HeLa cells): comparable ROS production
